Each structure is given as a SMILES string.

The text on this data set:
The following compounds were used as chelating agents in manufacture of cleaning liquids.

The compound `O=C(O)CN(CCN(CC(=O)O)CC(=O)O)CC(=O)O` [EDTA, Ethylenediaminetetraacetic acid] had a pKa1 of 2.00, a pKa2 of 2.70, a pKa3 of 6.2 and a pKa4 of 10.30.

Take `O=C(O)CC(O)(CC(=O)O)C(=O)O` [Citric acid]: the pKa3 was determined as 6.71.

Take `O=C(O)C(O)C(O)C(=O)O` (stereo not drawn) [Tartaric acid]: the pKa2 is listed as 7.40.

Regarding `O=C(O)CN(CCN(CC(=O)O)CC(=O)O)CCN(CC(=O)O)CC(=O)O` [DTPA, Diethylenetriaminepentaacetic acid], the pKa1 was 2.14, the pKa2 is recorded as 2.38, the pKa3 is 4.26 and the pKa4 was 8.60. Further, the pKa5 was found to be 10.53.

The compound `NCCC(=O)O` [ALA, β-Alanine] gave a pKa1 of 2.35 and a pKa2 of 9.87.

With `O=P(O)(O)CN(CCN(CP(=O)(O)O)CP(=O)(O)O)CP(=O)(O)O` [EDTPO, N,N,N′,N′-Ethylenediaminetetrakis(methylenephosphonic acid)], the pKa1 is recorded as 1.46, the pKa2 worked out at 2.72, the pKa3 was 5.06 and the pKa4 is listed as 6.18. For the same compound, the pKa5 is 6.63, the pKa6 was 7.43, the pKa7 was 9.22 and the pKa8 came to 10.6.

The compound `NCC(=O)O` [Gly, Glycine] yielded a pKa1 of 2.35 and a pKa2 of 9.78.

Consider `N=C(N)NCCC[C@H](N)C(=O)O` [Arginine], for which the pKa1 is on record as 1.82, the pKa2 is listed as 9.01 and the pKa3 came out at 12.48.

As to `CC(O)(P(=O)(O)O)P(=O)(O)O` [HEDP, 1-Hydroxyethylidene-1,1′-diphosphonic acid], the pKa1 was determined as 1.35, the pKa2 turned out to be 2.87, the pKa3 was 7.03 and the pKa4 was determined as 11.3.

The values above are taken from patent US20210395645A1, “CLEANING LIQUID” (FUJIFILM Electronic Materials Co., Ltd., priority 2019, published 2021).
